From patent US11459293B2, “Compositions and methods of making expanded hematopoietic stem cells using derivatives of fluorene” (ImmuneBridge Inc., priority 2017, dated 2022) come the findings set out here.

Assay [1] relates to hematopoietic stem cells derived from cord blood. Kind of assay: Enhancement of hematopoietic stem cells from cord blood cultured with Compound 1.008, flow cytometry up to 19 days (Example 34). In kind it is cell-based. The method, then:
A frozen cord blood sample was thawed and gradually brought to room temperature. Thawed cord blood was incubated in an in vitro culture media of Alpha MEM without phenol red, 10% (v/v) heat inactivated fetal bovine serum (FBS). Four samples were tested: Base conditions, +SF Conditions, +1.008 Conditions, and +1.008/+ER conditions. The components included in each condition is described in Table 4. Each condition tested also included an antibiotic solution that includes penicillin, streptomycin, and amphotericin B to avoid contamination.
(§1) Cultures were incubated at 3% oxygen (controlled by nitrogen) and 5% CO2.
Small molecule components were added separately and fresh each time the media needs to be refreshed. Cytokines can be stored together. Media renewal should occur at least every few days.
On the days indicated varying amounts of the cell culture was removed for data analysis (flow cytometry using a BD FACS ARIA II) and to avoid overcrowding of cells. The culture volume was replenished with fresh media according to the conditions tested. The data reported accounts for the dilution factor introduced in this procedure.

For assay [2], the system named is CD34+ cells isolated from donor peripheral blood (non-mobilized). Nature of the assay: Enhancement of hematopoietic stem cells from non-mobilized peripheral blood, flow cytometry, fold change days 2 to 7 (Example 33). In kind it is cell-based. As to conditions: 8 μM sample compound, normalized fold change days 2 to 7, 3% oxygen. The method, then: CD34+ cells were isolated from donor peripheral blood. Standard buffy coat separation using ficoll paque was performed. Cells were pelleted and incubated with unlabeled CD64 antibody. Cells then underwent negative depletion using biotinylated CD2, CD3, CD4, CD5, CD8, CD11b, CD14, CD16, CD19, CD20, CD45RA, CD56, CD235 (in some examples CD15, CD25 and other lineage specific antibodies may also be used). Cells which bind these antibodies are depleted using streptavidin beads. The enriched progenitor pool then undergoes cell sorting for CD34+.
Isolated CD34+ cells were incubated in an in vitro culture media of Alpha MEM without phenol red with 10% (v/v) heat inactivated fetal bovine serum (FBS). When testing compounds of Formula I, two internal controls were used: a positive control (+SF conditions) and a baseline control (i.e. basic conditions (“cytokines only”)). The media components and concentrations used for the compounds tested are described in Table 2. The culture also included an antibiotic solution that includes penicillin, streptomycin, and amphotericin B to avoid contamination. Controls were included because the amount of expansion in samples obtained varies from individual to individual. […]
Table 3, below, summarizes the relative expansive effect of Compound 1.001 to 1.023 (sample compounds) at the indicated concentration. […] It is calculated as shown below: […]

Assay [3] has as its system CD34+ cells from non-mobilized peripheral blood. Kind of assay: Long-term (21 days) expansion with Compound 1.010, non-mobilized peripheral blood (Example 36). In kind it is cell-based, human. The following applies: Compound 1.010 8 μM. The method, then: CD34+ cells from non-mobilized peripheral blood were purchased from STEMCELL Technologies. Primary human CD34+ cells were isolated from blood samples using positive immunomagnetic separation techniques.
Cryspreserved CD34+ cell samples from each source were thawed and gradually brought to room temperature. Samples were washed then placed in overnight culture in StemSpan with 100 ng/ml each of FLT3L, TPO, SCF, and IL-6.
as §1
Twenty-four hours later (day 1), cells were counted and immunophenotyped (flow cytometry on an Invitrogen Attune NxT cytometer). […] Exact cell numbers dispensed per condition were quantified for later calculations of fold change from day 1.
Wells were analyzed at days 7 and 10, flasks were analyzed at 14 and 21 days of incubation. Cell numbers and phenotypes were quantified with flow cytometry. […] An additional seven days later (day 21 of culture), cell numbers and phenotypes were again quantified with flow cytometry. Cell numbers calculated at day 21 account for the passaging of the cells.
Conditions in 96-well plates were prepared in quadruplicate; conditions in flasks were prepared in duplicate. On the above-indicated number of days in culture, cells from wells or flasks were collected and phenotypes were analyzed (flow cytometry on an Invitrogen Attune NxT cytometer).

A value given as a limit tells only on which side of the number the result lay.

Consider `CC(C)(C)C(=O)Nc1ccc2c(c1)C(=O)c1cc(N)ccc1-2` [Compound 1.008, N-(7-amino-9-oxo-9H-fluoren-2-yl)pivalamide], for which the “maintenance and expansion of hematopoietic stem cells in culture” value in assay [1] (+1.008 Conditions (250 nM), 19 days in culture) is “maintained and continue to expand”. For the same compound, the “total number of CD34+, CD34+/CD133+, CD34+/CD133+/CD90+ and CD34+/CD133+/CD90+/CD38 low/− cells (flow cytometric cell counts)” value in assay [1] (FIG. 24B-E, versus Base and +SF conditions) is reported as “increase”. Further, the “increase in CD34+ cells from day 2” value in assay [1] (after 19 days in culture, Compound 1.008 250 nM, 3% oxygen, FIG. 25B) is listed as “greater than 50 fold”. In addition, the “increase in CD34+/CD133+ cells from day 2” value in assay [1] (after 19 days in culture, Compound 1.008 250 nM, 3% oxygen, FIG. 25C) is “greater than 50 fold”. Besides, the “increase in CD34+/CD133+/CD90+ cells from day 2” value in assay [1] (after 19 days in culture, Compound 1.008 250 nM, 3% oxygen, FIG. 25D) is listed as approximately 20 fold. In assay [1] (after 19 days in culture, Compound 1.008 250 nM, 3% oxygen, FIG. 25E), the “increase in CD34+/CD133+/CD90+/CD38low/− cells from day 2” value is listed as more than 12 fold.

For the compound `CC(C)(C)C(=O)Nc1ccc2c(c1)C(=O)CC2` [Compound 1.019], in assay [2], the “CD90 effect (relative expansive effect on CD34+/CD133+/CD90+ cells)” value is “++ (0.2 ≤ x < 0.55)” and the “CD133 effect (relative expansive effect on CD34+/CD133+ cells)” value is given as “++ (0.2 ≤ x < 0.55)”.

Regarding `CC(C)(C)C(=O)Nc1ccc2c(c1)C(O)c1ccccc1-2` (centres unmarked) [Compound 1.010], the “expansion of CD34+ cells” value in assay [3] (fold change from day 1, up to 21 days in culture, 3% oxygen, FIG. 54B) was “greater than nine-fold”. In addition, in assay [3] (up to 21 days), the “expansion compared with cytokines alone” value is recorded as “far surpasses”.

As for ER50891 [reference compound], the “fold increase levels on addition of ER50891 to +1.008 conditions” value in assay [1] (ER50891 100 nM with Compound 1.008 250 nM, 19 days) was “even further improved”.
